Experimental data published in publication PMC11653243, “Enhancing Phototoxicity in BODIPY‐Perylene Charge Transfer Dyads by Combined Iodination and Mesylation” (Chemistry (Weinheim an Der Bergstrasse, Germany), 2024).
Several values for one entry are separate records, joined by “and”; a condition that tells them apart may be missing. Equal entries are not always repeated.

Experiments:
[1] = DPBF singlet oxygen (ROS) scavenger assay in methanol; conditions: 470 nm LED, t=210 seconds relative to t=0, 10 mM DPBF in methanol, absorbance matched
Method: Given the impact of the heavy iodine atom on phototoxicity, to confirm if the origin of toxicity is triplet sensitised formation of ^1O2 we carried out ROS scavenger studies with 1,3‐diphenylisobenzofuran (DPBF, Figure 6C). Stock solutions of BODIPY‐perylene were prepared under absorbance matched conditions and a BODIPY‐DPBF solution prepared at concentration of 10 mM DPBF in methanol. The BODIPY‐DPBF solution was irradiated (470 nm) from 0–210 seconds and the absorption spectra recorded every 30 seconds. In the presence of ^1O2, DPBF forms an unstable peroxide, endoperoxide 1, that readily decomposes to colourless 1,2‐dibenzoylbenzene (DBB).[51] This change is detected spectrophotometrically with depletion of DPBF absorbance at 410 nm. The DPBF assay results are represented in Figure 6C as % decrease in absorbance at 410 nm. The values are determined at t=210 seconds relative to the absorbance values recorded prior to irradiation at t=0. […] As expected, the most phototoxic compound, MB2PI, generates the most ^1O2 upon irradiation with a 470 nm LED with a 52 % decrease in DPBF absorbance at 410 nm. […] DPBF is known to be sensitive to light, therefore, to mitigate photodegradation of affecting the assay results, exposure was limited to 3.5 minutes where DPBF absorbance decrease at 410 nm is <10 % at this time point. […] Due to the photo‐vulnerability of DPBF under visible irradiation, this study is limited by a short experimental window and ignores any ROS generation over longer irradiation periods. […]
Figure 6 ROS dye H2DCFDA (A) prior to irradiation and (B) after 5 minutes of continuous irradiation confirming ROS generation. […] A graph of ROS scavenger DPBF response to irradiation of the BODIPY‐perylene compounds is shown in (C) where a decrease in absorbance at 410 nm confirms ^1O2 generation upon photoactivation. Studies were performed with the BODIPY‐perylene compounds under absorbance matched conditions. Values shown indicate the % decrease in absorbance values recorded at t=0 and t=210 seconds and is reported as mean±standard deviation. […]
To assess singlet oxygen (1O2) production and determine if the phototoxicity of our BODIPY complexes was caused by the generation of reactive oxygen species (ROS), a 1O2 scavenger study was completed using 1,3-diphenylisobenzofuran (DPBF). A 20 mM solution of DPBF in methanol was prepared, and stocks of the BODIPY-perylene compounds in DMSO were prepared under absorbance matched concentrations, starting at a 30 µM concentration of each. Test solutions of 1:1, DPBF: BODIPY in methanol (final concentration of 10 mM DPBF) were added to a clear 96 well plate (Nunc) and absorbance was measured using a BMG LABTECH CLARIOstar plate reader. […]

MCF‐7 spheroids = experiment: Spheroid phototoxicity, 470 nm LED, CellTiter-Glo 3D; format: cell-based; conditions: MCF‐7 3D (spheroids); for IC50: Homo sapiens, MCF7, light or radiation study, 470 nm LED, 5±0.54 J/cm^2 (2.2 mW/cm^2 for 0.5 h); for Photo Index (PI), ratio of dark IC50 to light IC50: 5 J/cm^2, 470 nm LED
Method: 3D Cell Studies: Toxicity Assays
Spheroids were seeded in a clear BIOFLOAT™ round bottom 96 well plate (Sarstedt) at 2x10^4 cells per well, centrifuged using the […] for 5 minutes at 700 rpm and allowed to grow and compact for 96 hours. A 2X concentrated solution of B2P, B2PI, MB2P or MB2PI was added in a 1:1 ratio (BODIPY:media) to each well of the 96 well plate, which contained 50 µL phenol red free media, and incubated for 24 h. Prior to irradiation 90% of the media/Ru solution was removed, replaced with fresh phenol red media to dilute the remaining BODIPY (multiple dilution steps, more required for 15 µM and above), and brought to a total volume of 100 µL. Phototoxicity studies in […] spheroids were performed as per the cell monolayer protocol with an irradiation dose of 5 J/cm2 using a 470 nm LED.
Control studies with untreated spheroids confirmed 17 J/cm2 irradiation dose was toxic to spheroids, however the spheroids remained viable after 5 J/cm2 irradiation. CellTiter-Glo 3D cell viability assay (Promega) was used to assess spheroid viability and performed as per the manufacturer’s protocol, where the CellTiter-Glo 3D reagent was added to the spheroid wells

MCF‐7 cells = experiment: Dark toxicity, 24 h, alamar blue assay; format: cell-based; conditions: Homo sapiens, MCF7, light or radiation study, without irradiation, 24 h in the dark at 37 °C
Method: Typical of many BODIPY derivatives, the BODIPY's presented in this work are insoluble in aqueous media, including PBS, and thus the main stock solutions (2–3 mM) were prepared in 100 % DMSO and diluted in media immediately before treating the cells. The maximum concentration for dark toxicity was set at 50 μM to keep the concentration of DMSO ≤1 % (v/v) to maintain cell health. As a result, it was not possible to determine an exact dark IC50 value as concentrations above 50 μM demanded DMSO concentrations that would affect the viability of the cells. Dietzek‐Ivanšić et al previously reported on the effect of DMSO on MCF‐7 cell viability, where cell viability remained high (95 %) in cells treated with 1 % DMSO in cell culture media for 24 h, whereas only 40 % of cells remained viable after treatment with 3.8 % DMSO. Working stocks in cell culture media remained stable within the incubation times used for cellular studies i. e. up to 24 h.[25]
Dark‐ and photo‐toxicity studies were performed by seeding CHO and MCF‐7 cells in clear 96‐well plates (Nunc) and treating with varying concentrations of B2P, MB2P, B2PI and MB2PI. Phototoxicity experiments were carried out using a 470 nm LED. For hypoxic phototoxicity studies, hypoxia was mimicked by adding CoCl2 to the cells prior to irradiation. Cell viability was determined using the alamar blue assay and absorbance measured with a BMG LABTECH CLARIOstar plate reader. […]
For 24 h dark toxicity studies, 50, 10, 5 and 1 µM stock concentrations of B2P, B2PI, MB2P and MB2PI were prepared in media to a final DMSO concentration of ≤1%. 100 µL of each concentration was added to the wells in triplicate and the plates incubated for 24 h in the dark at 37°C. Cell viability of all plate-based studies was assessed using the alamar blue assay. A 10% Resazurin-media solution (alamarBlue, Invitrogen) was added to the wells and incubated for 5 h in the absence of light. Absorbance was measured using a BMG LABTECH CLARIOstar plate reader at 570 nm and 600 nm (corrected for background subtraction). Cell viability is presented as a percentage (%) compared to untreated control wells. Plates were performed in triplicate. […]

SMILES	decrease in DPBF absorbance at 410 nm [1] [%]	IC50 (MCF‐7 spheroids) [µM]	Photo Index (PI), ratio of dark IC50 to light IC50 (MCF‐7 spheroids)	IC50 (MCF‐7 cells) [µM]
CC1=C(I)C(C)=[N+]2C1=C(c1ccccc1)c1c(C)c(-c3ccc4c5cccc6cccc(c7cccc3c74)c65)c(C)n1[B-]2(F)F [B2PI]	31	7.65	5.7	> 50
CC1=CC(C)=[N+]2C1=C(c1ccccc1)c1c(C)c(-c3ccc4c5cccc6cccc(c7cccc3c74)c65)c(C)n1[B-]2(F)F [B2P]	8	6.91	6.6	> 50
CC1=C(c2ccc3c4cccc5cccc(c6cccc2c63)c54)C(C)=[N+]2C1=C(c1c(C)cc(C)cc1C)c1c(C)c(I)c(C)n1[B-]2(F)F [MB2PI]	52	5.62	> 8.9 and > 8	> 50
CC1=C(c2ccc3c4cccc5cccc(c6cccc2c63)c54)C(C)=[N+]2C1=C(c1c(C)cc(C)cc1C)c1c(C)cc(C)n1[B-]2(F)F [MB2P]	6	6.26	> 8	> 50
